Measured values as given in PubChem BioAssay (NCI).
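Exposure lasted 48 hours, with cells grown in 96-well plates and compounds tested at five concentrations. GI50 marks 50% less growth. TGI denotes the concentration required for complete inhibition of growth.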

Assays:
Assay in all cases: inhibition of tumour cell growth, NCI panel, 48 h
ACHN renal = system: ACHN renal
HL-60(TB) leukemia = system: HL-60(TB) leukemia
LOX IMVI melanoma = system: LOX IMVI melanoma
MOLT-4 leukemia = system: MOLT-4 leukemia
NCI-H23 lung = system: NCI-H23 lung
NCI-H522 lung = system: NCI-H522 lung
SK-MEL-2 melanoma = system: SK-MEL-2 melanoma
SK-MEL-28 melanoma = system: SK-MEL-28 melanoma
SR leukemia = system: SR leukemia
SW-620 colon = system: SW-620 colon

Structure (SMILES) | GI50 (ACHN renal) [µM] | TGI (ACHN renal) [µM] | GI50 (HL-60(TB) leukemia) [µM] | TGI (HL-60(TB) leukemia) [µM] | GI50 (LOX IMVI melanoma) [µM] | TGI (LOX IMVI melanoma) [µM] | GI50 (MOLT-4 leukemia) [µM] | TGI (MOLT-4 leukemia) [µM] | GI50 (NCI-H23 lung) [µM] | TGI (NCI-H23 lung) [µM] | GI50 (NCI-H522 lung) [µM] | TGI (NCI-H522 lung) [µM] | GI50 (SK-MEL-2 melanoma) [µM] | TGI (SK-MEL-2 melanoma) [µM] | GI50 (SK-MEL-28 melanoma) [µM] | TGI (SK-MEL-28 melanoma) [µM] | GI50 (SR leukemia) [µM] | TGI (SR leukemia) [µM] | GI50 (SW-620 colon) [µM] | TGI (SW-620 colon) [µM]
COC(=O)[C@@H]1CCCN1C(=O)[C@@H]1CCCN1C(=O)[C@@H](Cc1c[nH]c2ccccc12)NC(=S)Nc1cc(C(F)(F)F)cc(C(F)(F)F)c1 | 4.28 | > 100 | 4.26 | > 100 | 1.89 | 4.38 | 3.16 | > 100 | 6.35 | > 100 | 3.98 | 26.5 | 2.49 | 5.11 | 1.95 | 4.54 | 2.39 | 6.44 | 4.34 | > 100
CS(=O)(=O)Nc1cc(-c2ccc3ncnc(Nc4ccc5c(cnn5Cc5ccc(F)cc5)c4)c3c2)cnc1Cl | 2.99 | > 100 | 0.435 | 2.75 | 1.18 | 3.27 | 0.801 | 3.89 | 1.43 | 5.43 | 1.79 | 12.8 | 1.09 | 3.28 | 0.803 | 7.17 | 1.71 | 6.73 | 2.5 | 12.8
O=C1c2ccccc2C(=O)C1C(c1ccc([N+](=O)[O-])cc1)C1C(=O)c2ccccc2C1=O | – | > 100 | – | > 100 | – | 32.5 | – | > 100 | – | > 100 | – | > 100 | – | > 100 | – | 93.6 | – | > 100 | – | 32.3
O=[N+]([O-])c1ccc(CS(=O)Cc2ccccc2)cc1 (stereo not given) | – | > 100 | – | > 100 | – | > 100 | – | > 100 | – | > 100 | – | > 100 | – | > 100 | – | > 100 | – | > 100 | – | > 100
C=C(C)CCC(C)N1CCC(N2CCC(C(=O)NCCc3ccccc3)CC2)CC1 (stereo not given) | 17.2 | 53.8 | 25.7 | > 100 | 15.8 | 35.5 | 45.9 | > 100 | 31.3 | > 100 | 14 | 54.4 | 21.3 | 54.3 | 13.2 | 27.5 | 12.3 | 82.1 | 24.7 | > 100
C=C[C@]1(C)C=C2C(=O)[C@@]3(O)OC[C@@]4(CCCC(C)(C)C43O)C2(O)C(O)C1 (stereo not given in full) | 1.54 | 3.1 | 3.41 | 13 | 1.96 | 6.48 | 3.09 | 15.2 | 2.71 | 8.51 | 0.631 | 2.84 | 12.4 | 27.4 | 4.26 | 15.6 | 1.97 | 24.9 | 0.827 | 2.31
